# Results from US20180289702A1, “LPA LEVEL REDUCTION FOR TREATING CENTRAL NERVOUS SYSTEM DISORDERS” (priority 2015, published 2018).
# What was measured:
# [1] = system: LPA species (LPA 16:0, 18:1, 18:2); assay: LPA species in cerebrospinal fluid (LC-ESI-MS/MS); type: in vivo; conditions: PRG-1 Ko mice, intraperitoneal injection
# Description: LPA analysis was performed with liquid chromatography-electrospray ionization-tandem mass spectrometry (LC-ESI-MS/MS). The LC-MS/MS system consisted in a hybrid triple quadrupole-ion trap QTrap 5500 mass spectrometer (AB Sciex, Germany) equipped with a Turbo-V-source operating in negative ESI mode, an Agilent 1200 binary HPLC pump, column oven (40° C.) and degasser and an HTC Pal autosampler.
# Two cycles of […] extraction of LPAs were done with 1-buthanol after adding the internal standard LPA17:0 to the sample (50 μl sample, 20 μl internal standard in 500 μl 1-butanol). The combined organic phases were dried under a gentle stream of nitrogen at 45° C. and subsequently re-dissolved in 200 μl methanol.
# For the chromatographic separation a C18 column (Mercury 20×2 mm, 3 μm, 100 Å) and precolumn were used (Phenomenex, Germany). A linear gradient was employed at 400 μl/min. Mobile phase A was water with ammonium formate 50 mM and formic acid (100:0.2, v/v) and mobile phase B acetonitrile/formic acid (100:0.1, v/v), total run time 7 min, injection volume 20 μl. The mass spectrometer operated in the negative ion mode with an electrospray voltage of −4500 V at 350° C. Multiple reaction monitoring (MRM) was used for quantification. […] Quantitation was performed with Analyst Software V1.5 (Applied Biosystems) using the internal standard method with 1/concentration^2 weighting. […]
# [2] = PF8380 concentration in serum and cerebrospinal fluid by mass spectrometry; type: in vivo, mice
# Description: Animals were treated using the in-vivo potent autotaxin inhibitor PF 8380 (Gierse et al., 2010). Animals received a single i.p. injection 3 hours prior to PPI.
# Nanoscale UPLC separation was performed with a nanoAcquity UPLC system (Waters Corporation) equipped with a PepSwift Monolithic PS-DVB, 200 μm×5 cm analytical column (Thermo Scientific Dionex). For analysis, samples (300 nL) were directly injected onto the analytical column. Mobile phase A was water containing 0.1% v/v formic acid, while mobile phase B was ACN containing 0.1% v/v formic acid. Samples were separated at 55° C. with a gradient of 1-35% mobile phase B over 20 min at a flow rate of 800 nL/min. The column was rinsed for 7 min with 99% mobile phase B, followed by a re-equilibration step at initial conditions resulting in total analysis times of 40 min.
# Mass spectrometric analysis of PF-8380 was performed in positive mode ESI using a Synapt G2-S HDMS mass spectrometer (Waters Corporation). Samples were analyzed using a targeted MS-method isolating the singly charged precursor of PF-8380. […] All samples and references were analyzed in three technical replicates.
# Raw data were analyzed manually using MassLynx V4.1 Software (Waters Corporation). Extracted ion chromatograms of fragment ions at m/z 301 were used for quantitative analysis calculating the area under the curve. […]
# [3] = system: MCAO mouse model of stroke; assay: medial cerebral artery occlusion (MCAO) mouse model of stroke; type: in vivo, mice; conditions: 30 mg/kg i.p. 3 hours prior to MCAO
# Description: For stroke experiments, mice were anesthetized and occlusion of the medial cerebral artery (MCAO) was performed for 30 min (assessment after 3 days) or for 1 h (assessment after 1day) by introduction of an intraluminal filament as reported (Ploen et al., 2014). […] After 1 h or after 30 min of MCAO, respectively, mice recovered and were perfused 24 hours (1 h MCAO) or 72 hours (30 min MCAO) later. Brains were extracted, snap frozen and cryosectioned using a cryotome. Mounted brain slices were Nissl-Stained which allowed to measure infarct area and to calculate total infarct volume per animal. All measurements were performed in a blinded fashion. Data was assessed for normality and statistical analysis was performed using an one-tailed t-test.
# mice = assay: food intake after overnight food deprivation; type: in vivo
# Excerpt: Metabolic alterations like overnight fasting induce changes in LPA subtype composition (Ino M et al. 2012). This correlates with the increased activity of ATX after overnight food deprivation, the availability of the ATX substrate LPC but also with the substrate preferences of ATX for unsaturated LPCs. In order to understand the cortical effects of altered LPA-composition upon fasting, the inventors analyzed food consumption after overnight food deprivation in control and PF8380-treated animals. […] However, overnight food deprivation was not related to hyperlocomotion since travelled distance in an open field setting was not different between control, overnight food deprived and PF-treated overnight food deprived animals (FIG. 19B).
compound,measurement,setting,value
"O=C(CCN1CCN(C(=O)OCc2cc(Cl)cc(Cl)c2)CC1)c1ccc2[nH]c(=O)oc2c1 [PF8380, 4-[3-(2,3-Dihydro-2-oxo-6-benzoxazolyl)-3-oxopropyl]-1-piperazinecarboxylic acid (3,5-dichlorophenyl)methyl ester]","main LPA species (LPA 16:0, 18:1, 18:2) in CSF",[1],significant decrease
same,concentrations in the serum,[2]; in-vivo application 30 mg/KG/BW,robust concentrations
same,concentration at 3 h,"[2]; mouse, cerebrospinal fluid, ip, 30 mg/KG/BW, single i.p. injection, 3 hours after injection",≤ 420 nM
same,infarct size,[3]; after 1 day (1 h MCAO),significantly reduced
same,infarct size,[3]; after 3 days (30 min MCAO),significantly reduced
same,food intake,mice; control mice (not food deprived),does not alter
same,food intake,"mice; overnight food deprived animals, within 60 min",significantly decreased
